# Experimental data taken from US6255088A, “Enzymatic sulfation of biomolecules” (The Scripps Research Institute, priority 1999, dated 2001).
# Where two headings read alike, the source gives them in different places.
# Legend:
# NodST [1] = molecular target: T1, NodST (Sinorhizobium meliloti, UniProt P06236); conditions: read-out: Km of NodST for PAPS; preliminary study
# T1 sequence (P06236 1-247): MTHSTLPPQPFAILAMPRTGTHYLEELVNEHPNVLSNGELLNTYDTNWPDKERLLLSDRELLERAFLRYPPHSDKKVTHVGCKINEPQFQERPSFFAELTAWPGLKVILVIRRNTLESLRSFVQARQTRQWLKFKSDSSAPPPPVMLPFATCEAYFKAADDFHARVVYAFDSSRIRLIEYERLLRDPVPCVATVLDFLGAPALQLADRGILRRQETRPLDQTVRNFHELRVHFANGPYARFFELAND
# Experimental: To ensure that our coupled assay provides a steady-state PAPS concentration that is much greater than the Km of NodST, the Km experiments above were conducted with varying concentrations of PAPS to verify PAPS saturation. […] A previously published study using a radioisotopic thin-layer chromatography method to determine kinetic values of NodST maintained 100 μM PAPS concentration for all assays. Given that AST-IV maintains a constant concentration of PAPS through recycling, it is disclosed that 20 μM PAPS reaction concentration is sufficient for saturation conditions to maintain steady-state.
# [2] = aqueous solution at pH 8.0; cited from earlier work
# [3] = tested on: hydroxysteroid sulfotransferase; conditions: Marcus et al. 1980, cited from earlier work
# NodST [4] = molecular target: T1, NodST; conditions: Lin et al. 1995; read-out: Ki, PAP inhibition of NodST; cited from earlier work
# βAST-IV = molecular target: T2, βAST-IV (Rattus norvegicus, UniProt P17988); experiment: Reverse-physiological reaction of βAST-IV (PAPS from PAP and p-nitrophenyl sulfate); format: biochemical; conditions: 10 mM p-nitrophenyl sulfate, pH 7.0, 25° C.
# T2 construct: made in house; host or cells: E. coli BL21(DE3)
# Experimental: All capillary zone electrophoresis (CZE) was run in 0.23 M borate in running buffer at pH 7.8. The column was pre-washed with H2 O (1 min), 1 N NaOH (1 min), and running buffer (2 min). The sample was pressure injected at 20 psi sec and electrophoresis was run with 20.0 kV (- to +) at 20° C. with detection at 260 nm. CZE of 1 mM standards PAPS, PAP, and 3'-adenosine monophosphate (3'-AMP) were run to determine retention times. The reverse-physiological reaction assay mixture, a 500 μL solution containing 50 mM bis-tris propane-HCl buffer at pH 7.0, 1 mM 2-mercaptoethanol, 10 mM p-nitrophenyl sulfate, and 1 mM PAP at 25° C., was subjected to CZE prior to addition of enzyme (t=0). 5 mU βAST-IV was added and CZE was repeated 30 minutes after initiation. The reaction was then diluted 100-fold and CZE was run again. A 2.0 μL internal standard of 10 mM PAPS was added, and CZE was repeated.
# βAST-IV activity in the reverse-physiological reaction was determined at 25° C. with a total volume of 500 μL. The reverse-physiological assay above was used with varying PAP concentration (15.6, 31.3, 62.5, 125, 250, 500 μM). Measurement of initial velocity was conducted over 10 seconds at 400 nm, and an extinction coefficient of 1064 was used to calculate p-nitrophenol concentration at pH 7.0. […]
# NodST [5] = molecular target: T1, NodST; conditions: non-coupled radioisotope thin-layer chromatography assay, 100 μM PAPS; read-out: published Km of acceptor for NodST; cited from earlier work
# NodST [6] = molecular target: T1, NodST; experiment: Continuous spectrophotometric coupled-enzyme assay of NodST with βAST-IV PAPS regeneration; format: biochemical, Rhizobium melioti
# Experimental: 100 mM bis-tris propane-HCl, pH 7.0, 5 mM 2-mercaptoethanol, 20 μM PAPS, 2 mM p-nitrophenyl sulfate, 3.0 mU NodST, 6.4 mU β-AST IV, and substrate are combined to a total volume of 500 μL. Because commercial PAPS contains significant amounts of PAP, the assay solution is incubated for 30 minutes at 20° C. prior to addition of substrate. The evolution of p-nitrophenol is monitored at 400 nm for 10 minutes.
# All reactions were run in a total volume of 500 μL at 25° C. […] The amount of NodST added to each series of acceptor concentrations is varied over 1.2, 1.8, 3.0, and 4.2 mU. Because commercial PAPS contains significant amounts of PAP, the assay solution is incubated for 30 minutes at 20° C. prior to addition of substrate. The evolution of p-nitrophenol is monitored at 400 nm for 10 minutes.
# 3.0 mU of NodST was used in each reaction. The Km for each series of PAP concentrations was calculated and the values were compared.
# T2 sequence (P17988 whole entry): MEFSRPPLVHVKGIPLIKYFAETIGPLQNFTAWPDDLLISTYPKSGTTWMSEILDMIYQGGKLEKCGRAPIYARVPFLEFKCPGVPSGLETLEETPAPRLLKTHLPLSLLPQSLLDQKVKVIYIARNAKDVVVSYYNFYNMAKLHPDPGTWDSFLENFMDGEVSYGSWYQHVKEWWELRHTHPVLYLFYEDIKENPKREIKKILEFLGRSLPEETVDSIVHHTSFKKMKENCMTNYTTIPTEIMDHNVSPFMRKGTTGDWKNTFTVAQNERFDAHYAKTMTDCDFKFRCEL
smiles,measurement,setting,value
"Nc1ncnc2c1ncn2[C@@H]1O[C@H](COP(=O)(O)OS(=O)(=O)O)[C@@H](OP(=O)(O)O)[C@H]1O [PAPS, 3'-phosphoadenosine-5'-phosphosulfate]",Km,NodST [1],< 0.1 µM
same,half-life of PAPS in aqueous solution,[2],approximately 20 hours
"Nc1ncnc2c1ncn2[C@@H]1O[C@H](COP(=O)(O)O)[C@@H](OP(=O)(O)O)[C@H]1O [PAP, adenosine 3',5'-diphosphate]",enzyme product inhibition of sulfotransferases,[3],low-micromolar levels
same,Ki,"[3]; read-out: Ki, PAP inhibition of hydroxysteroid sulfotransferase",14 µM
same,Ki,NodST [4],0.1 µM
same,Vmax of βAST-IV as a function of PAP concentration,βAST-IV,6.04 ± 0.24 µmol/min
"CC(=O)N[C@H]1[C@H](O[C@H]2[C@H](O)[C@@H](NC(C)=O)[C@H](O[C@H]3[C@H](O)[C@@H](NC(C)=O)C(O)O[C@@H]3CO)O[C@@H]2CO)O[C@H](CO)[C@@H](O[C@@H]2O[C@H](CO)[C@@H](O[C@@H]3O[C@H](CO)[C@@H](O)[C@H](O)[C@H]3NC(C)=O)[C@H](O)[C@H]2NC(C)=O)[C@@H]1O (stereo partly drawn) [N,N',N"",N'"",N""""-pentaacetylchito-pentaose]",Km,NodST [5],190 µM
"CC(=O)N[C@H]1[C@H](O[C@H]2[C@@H](O)[C@@H](CO)O[C@@H](O[C@H]3[C@H](O)[C@@H](NC(C)=O)C(O)O[C@@H]3CO)[C@@H]2O)O[C@H](CO)[C@@H](O[C@@H]2O[C@H](CO)[C@H](O)[C@H](O)[C@H]2O)[C@@H]1O (stereo partly drawn) [LacNAc dimer, Galβ(1,4)GlcNAcβ(1,3) Galβ(1,4)GlcNAc]",increase in acceptor specificity from LacNAc to the LacNAc dimer,"NodST [6]; NodST, coupled assay",sixty-fold increase
"CC(=O)N[C@H]1[C@H](O[C@H]2[C@H](O)[C@@H](NC(C)=O)C(O)O[C@@H]2CO)O[C@H](CO)[C@@H](O[C@@H]2O[C@H](CO)[C@@H](O[C@@H]3O[C@H](CO)[C@@H](O)[C@H](O)[C@H]3NC(C)=O)[C@H](O)[C@H]2NC(C)=O)[C@@H]1O (stereo partly drawn) [N,N',N"",N'""-tetraacetylchitotetraose]",Km,NodST [5],140 µM
same,kcat of acceptor with NodST,"NodST [6]; apparent value, coupled assay, 20 μM PAPS, pH 7.0",0.328 s⁻¹
same,"acceptor specificity for NodST, ranking among substrates","NodST [6]; coupled assay, among N-acetyl chitoses, LacNAc and LacNAc dimer",best substrate
"CC(=O)N[C@H]1[C@H](O[C@H]2[C@H](O)[C@@H](NC(C)=O)C(O)O[C@@H]2CO)O[C@H](CO)[C@@H](O[C@@H]2O[C@H](CO)[C@@H](O)[C@H](O)[C@H]2NC(C)=O)[C@@H]1O (stereo partly drawn) [N,N',N""-triacetylchitotriose]","kcat of acceptor with NodST, PAPS concentration study","NodST [6]; 20, 40 and 100 μM PAPS, all three within 10% variation, 3.0 mU NodST",~23.6 s⁻¹
